What was measured:
[1] = system: pMEK and pErk in Panc10.05 (K-Ras G12D mutant) cells; assay: SDS-PAGE/blot detection of pMEK and pErk (FIG. 3); type: cell-based; settings: serum-starved, 3.1 to 25 μM, 1 hour, then 100 ng/ml EGF 5 minutes
Procedure: The effect of contemplated compounds on cell signaling was tested in wild type and K-ras G12D mutant cells as follows: Cancer cell lines BxPC-3 (K-Ras wild-type), and Panc10.05 (K-Ras G12D mutant) were serum-starved 0/N before treatment with 3.1 to 25 μM of Ras compound A0837 for 1 hour before stimulation with 100 ng/ml EGF for 5 minutes. Cells were washed once in ice-cold PBS, lysed in complete lysis buffer on ice, and processed by SDS-PAGE under reducing conditions for the detection of pMEK and pErk. Membranes were stripped and re-probed for total MEK/Erk.

[2] = system: Akt phosphorylation in Panc10.05 (G12D) cells; assay: In-Cell Western Akt phosphorylation; type: cell-based; settings: EC50, one hour treatment; read-out: In-Cell Western Akt phosporylation Panc10.05 (G12D)
Procedure: (§1) In-cell phosphorylation assays for Erk and Akt were performed on various of the compounds and exemplary results are shown in Table 3 below using […] and Panc10.05 cell lines for G12D K-ras mutants.
(§2) Cells are seeded in complete medium into black sided, clear-bottom 384-well microplates at 3000 cells/[…]/well. Plates are returned to 37° C. CO2 incubator for 18 hr. Drug is made as 200× in DMSO and diluted into medium to 10×. To each well is added 4 ul 10× test article or controls, and plates are returned to the incubator. Final assay DMSO concentration is 0.5%. After one hour, cells are fixed in formaldehyde, rinsed & permeabilized with triton X-100, and blocked with BSA/Goat serum blocking solution. Primary phospho-Akt and phospho-ERK antibodies are added and plates are incubated overnight at 4° C. Plates are rinsed with Tween-20 wash buffer and secondary antibody (Goat anti-rabbit, Thermofisher) is added. After 2 hours, plates are rinsed in Tween-20 wash buffer, and then PBS. Plates are imaged on the Celigo (Nexcelom) and cellular fluorescence is quantitated. Full inhibition of phospho-Akt is achieved with 1 uM BEZ235 (Sellekchem), while full inhibition of phospho-ERK is achieved with 1 uM MEK Inhibitor II Calbiochem). EC50 values are calculated using Graphpad Prism.

[3] = system: Akt phosphorylation in Panc1 (G12D) cells; assay: In-Cell Western Akt phosphorylation; type: cell-based; settings: EC50, one hour treatment; read-out: In-Cell Western Akt phosporylation Panc1 (G12D)
Procedure: as §1, §2

K-ras G12D (GDP) = K-ras G12D (GDP) (Homo sapiens, UniProt P01116, G12D); assay: SPR assay (surface plasmon resonance); type: binding; settings: 25° C., 8% DMSO
In short: (§3)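 His-tagged K-ras (GDP- or GTP-bound) captured on Ni-NTA surface (4000 RU); running buffer 10 mM HEPES pH 7.4, 150 mM NaCl, 0.1% Tween-20, 1 mM MgCl2, 8% DMSO; 25° C, 50 μL/min. Compounds injected by Taylor diffusion gradient, buffer blanks double-referenced, kinetic/affinity model fitting.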

K-ras wild-type (GTP) = K-ras wild-type (GTP) (Homo sapiens, UniProt P01116); assay: SPR assay (surface plasmon resonance); type: binding; settings: 25° C., 8% DMSO
In short: as §3

K-ras wild-type (GDP) = K-ras wild-type (GDP) (Homo sapiens, UniProt P01116); assay: SPR assay (surface plasmon resonance); type: binding; settings: 25° C., 8% DMSO
In short: as §3

[4] = system: Ras in BxPC-3 (K-Ras wild-type), Panc10.05 (K-Ras G12D mutant), Capan-2 (K-Ras G12V) cells; assay: G-LISA Ras inhibition in cancer cell lines (FIG. 2); type: cell-based; settings: 3.1 to 25 μM, 1 hour, then 100 ng/ml EGF 2 minutes
Procedure: To verify the results in specific cancer cell lines, cancer cell lines BxPC-3 (K-Ras wild-type), Panc10.05 (K-Ras G12D mutant), and Capan-2 (K-Ras G12V) were treated with 3.1 to 25 μM of Ras compound A0837 for 1 hour before stimulation with 100 ng/ml EGF for 2 minutes. Cells were washed once in ice-cold PBS, lysed in complete lysis buffer on ice, and processed by G-LISA according to Cytoskeleton protocol.

## Cc1nc(C)c(C(=O)Nc2nc(-c3ccc4[nH]c(=O)[nH]c4c3)cs2)s1 [Compound 4562]
[1]
  Signaling downstream of Ras (pMEK, pErk), mutant cell line (FIG. 3): inhibited signaling downstream of Ras in the mutant cell line
[2]
  EC50: 22 µM
[3]
  EC50: 8 µM
K-ras G12D (GDP)
  Kd: 111 µM
  SPR Assay G12D (GDP) Rmax: Rmax = 66.0 ± 0.9
K-ras wild-type (GTP)
  SPR Assay Wild-type (GTP) Kd: No binding/fit
K-ras wild-type (GDP)
  SPR Assay Wild-type (GDP) Kd: No
[4]
  Selectivity of Ras inhibition in cancer cell lines, G-LISA (FIG. 2): clear selectivity towards K-ras mutant G12D

From patent US10487078B2, “Compositions and methods of targeting mutant K-RAS” (NantBio, Inc., priority 2015, dated 2019)
